This is an account of results in patent US7754718B2 (priority 2004, dated 2010).

The term EC50 denotes the midpoint of the concentration-response curve. The inhibition is the share of the control response that was lost under treatment.

Where only a bound is given, the exact number is not on record here.

The subject of data set [1] is CEM cells. The data set is described as follows: Cell cytotoxicity assay on CEM cells. It is filed as cell-based. The conditions noted are these: Homo sapiens, CCRF-CEM, concentration that inhibited 50% of cell growth, read-out: IC50 (μM) CEM. In short, it runs like this:
(§1)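 MT-2 and CEM cytotoxicity determined per previously reported procedures. HepG2 cells seeded at 10^4 cells/ml in MEME + 10% FBS, compound added on day 2 for 3 further days at 37° C. Viable layer stained with methylene blue, solubilized in 1% sarcosyl, A595 read.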

The nature of data set [2]: Cell cytotoxicity assay on MT-2 cells. It is filed as cell-based. As to conditions: human, read-out: Cytotoxity (ID50, μM) MT-2. In short, it runs like this:
as §1

Data set [3] relates to EBV. The data set is described as follows: In vitro antiviral assay for EBV. In kind it is cell-based, Epstein-Barr Virus. The conditions noted are these: human gammaherpesvirus 4, read-out: Antiviral Activities (EC50, μM) EBV. The procedure, abridged: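 Performed according to previously reported procedures for each virus; no further conditions are given for the HSV-2, CMV, HIV or EBV assays.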

Data set [4] concerns HCV. The data set is described as follows: Anti-HCV activity in Huh-Luc/neo cell line, luciferase activity after 3-day treatment. As to conditions: Hepatitis C virus, 72 h; at 3 μM, Huh-Luc/neo cells, 3 days; read-out: HCV percent of inhibition. It is filed as cell-based, Hepatitis C virus.
For data set [5], the system named is HBV core protein. The data set is described as follows: HBV core protein expression in HepG2.2.15 cells, Western blot. In kind it is cell-based, Hepatitis B virus. As to conditions: 6 days. Here is the method:
(§2) Southern blot hybridization was used to measure the effects of compounds on HBV DNA. Total DNA from cells was extracted using Dneasy Tissue kit (Qiagen Inc. Valencia, Calif.) and separated on a 0.8% agarose gel. Separated DNA was transferred to a Hybond-N+membrane (Amersham Pharmacia Biotech Inc. Piscataway, N.J.). Inhibition of viral DNA replication was assessed by comparison of the replicative HBV DNA from drug-treated versus untreated cultures using hybridization of the membrane with a [α-^32P] dCTP labeled whole HBV DNA probe followed by autoradiography. Quantitative densitometry was performed on a Molecular Dynamics Densitometer (Amersham Pharmacia Biotech Inc. Piscataway, N.J.) using ImageQuaNT image analysis software. The integrated HBV genome was used as the internal control to normalize the amount of DNA loaded. Northern blot hybridization was used to measure the effects of the compounds on HBV RNA. Total intracellular RNA was extracted from cells using Rneasy kit (Qiagen Inc. Valencia, Calif.). RNA was separated in a 1.2% formaldehyde agarose gel and transferred to a Hybond-N+ membrane (Amersham Pharmacia Biotech Inc. Piscataway, N.J.). The membrane was hybridized with the same probe mentioned above at 65° C. followed by autoradiography. GAPDH RNA level was used as an internal control to normalize the amount of RNA loaded. The decrease of HBV core protein expression was assessed by western blot. A cellular crude extract of […] cells was separated on a 12% SDS-PAGE gel and transferred onto a nitrocellulose membrane (Bio-rad Laboratories, Hercules, Calif.). Anti-HBV core antibody (DAKO Corp. Carpinteria, Calif.) and anti rabbit IgG secondary antibody (Sigma. St. Louis, Mo.) were added. Actin protein level was used as the internal control.
Since 3.5 kb HBV transcript was decreased after drug treatment, it was anticipated that this class of compounds would also affect viral protein expression. HepG2.2.15 cells were treated with helioxanthin and 22 for 6 days. […]

Data set [6] concerns wt (ayw) HBV. Briefly: HBV DNA inhibition in HepG2.2.15 cells, Southern blot hybridization. It is filed as cell-based. As to conditions: Hepatitis B virus, HepG2.2.15, 144 h, read-out: EC50 (μM) wt (ayw), HepG2.2.15 cells, 6-day treatment, HBV DNA by Southern blot. Here is the method: as §2
Hep.G2.2.15 is a hepatoblastoma cell line stably transfected with a HBV genome (ayw strain) (Sells et al., 1987, Proc Natl Acad Sci USA. 84 (4):1005-1009). […]
The effect of helioxanthin and 22 on HBV DNA in HepG2.2.15 cells, which is stably transfected with the HBV genome, was assessed. […]

As for `O=C1OCc2c1cc1ccc3c(c1c2-c1ccc2c(c1)OCO2)OCO3` [Compound 2, 10-Benzo[1,3]dioxol-5-yl-9H-furo[3′,4′:6,7]naphtho[1,2-d][1,3]dioxol-7-one, reference compound], the IC50 in data set [1] came out at 32 µM; in data set [2], 2.5 µM. The EC50 was > 20 µM in data set [3] and ~1 µM in data set [6]. For the same compound, the inhibition at 3 µM in data set [4] worked out at 64%. Also, the “effect on HBV core protein expression” value in data set [5] (listed as helioxanthin) is given as “decreased in a dose-dependent manner”.
In the case of `Nc1ccn([C@@H]2CS[C@H](CO)O2)c(=O)n1` [Compound 3TC, (−)-(2R,5S)-1-[2-(hydroxymethyl)oxathiolan-5-yl]cytosine], the IC50 in data set [1] is > 100 µM. Also, the values for the EC50 in data set [3] and in data set [6] were 0.4 µM and 0.05 ± 0.03 µM, respectively. The “effect on HBV core protein expression” value in data set [5] was “no effect”.
Take `COc1ccc(-c2c3c(cc4ccc5c(c24)OCO5)C(=O)NC3)cc1OC` [Compound 22, 10-(3,4-Dimethoxy-phenyl)-8,9-dihydro-1,3-dioxa-8-aza-dicyclopenta[a,g]naphthalen-7-one]: the results for the IC50 in data set [1] and in data set [2] were 3.6 ± 1.2 µM and 16 µM, respectively. The results for the EC50 in data set [3] and in data set [6] were > 20 µM and ~0.08 µM, respectively. Moreover, the inhibition at 3 µM in data set [4] was 80%. Moreover, the “effect on HBV core protein expression” value in data set [5] is “decreased in a dose-dependent manner”.
